These results are taken from US20020052295A1, “Diacyl derivatives of propylene diamine having herbicidal activity” (priority 1999, published 2002).

One assay concerns DATST. As to the kind of experiment: Pre-emergence herbicidal activity on DATST (jimsonweed). The class given is in vivo, Datura stramonium. In outline:
(§1)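 Surface-applied pre-emergence treatment (compound diluted in 1:1 acetone/water) onto seeded, soil-covered pots. Greenhouse 30/21 °C. Day ~14: % inhibition vs untreated → GR80.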

The next assay deals with CIRAR. Kind of assay: Pre-emergence herbicidal activity on CIRAR (canada thistle, seedling). The class given is in vivo, Cirsium arvense. In outline: as §1
Another assay relates to POROL. As to the kind of experiment: Pre-emergence herbicidal activity on POROL (common purslane). Type of assay: in vivo, Portulaca oleracea. In outline:
as §1

The next assay has as its system PANDI. As to the kind of experiment: Pre-emergence herbicidal activity on PANDI (fall panicum). Type of assay: in vivo, Panicum dichotomiflorum. The procedure, abridged:
as §1

The next assay concerns SETFA. As to the kind of experiment: Pre-emergence herbicidal activity on SETFA (giant foxtail). Type of assay: in vivo, Setaria faberi. In outline: as §1
For a further assay, the system named is SORHA. Kind of assay: Pre-emergence herbicidal activity on SORHA (johnsongrass, seedling). The class given is in vivo, Sorghum halepense. The procedure, abridged:
as §1

For a further assay, the system named is BRAPP. As to the kind of experiment: Pre-emergence herbicidal activity on BRAPP (broadleaf signalgrass). The class given is in vivo, Brachiaria platyphylla. The procedure, abridged:
as §1

The next assay concerns CONAR. Kind of assay: Pre-emergence herbicidal activity on CONAR (field bindweed). Type of assay: in vivo, Convolvulus arvensis. The procedure, abridged:
as §1

For a further assay, the system named is CHEAL. Kind of assay: Pre-emergence herbicidal activity on CHEAL (common lambsquarters). Type of assay: in vivo, Chenopodium album. The procedure, abridged:
as §1

In the next assay the test system is DIGSA. Kind of assay: Pre-emergence herbicidal activity on DIGSA (large crabgrass). Type of assay: in vivo, Digitaria sanguinalis. In outline:
as §1

A further assay has as its system SOLNI. Kind of assay: Pre-emergence herbicidal activity on SOLNI (black nightshade). The class given is in vivo, Solanum nigrum. The procedure, abridged: as §1
The next assay has as its system AMARE. As to the kind of experiment: Pre-emergence herbicidal activity on AMARE (redroot pigweed). The class given is in vivo, Amaranthus retroflexus. In outline:
as §1

Assay [1] has as its system monocotyledonous and dicotyledonous annual plant species. As to the kind of experiment: Greenhouse pre-emergence test, all species of the test taken together. Type of assay: in vivo. The source says: All such uses, and the biological activity enabling such uses, are embraced by the term “herbicidal” herein. […] Where herbicidal activity was evident but 80% inhibition was not achieved at the highest rate tested (typically 1000 g/ha), an asterisk (*) is shown in the following tables. Herbicidal activity evident in the form of symptoms of phytotoxicity, in the absence of at least 80% inhibition at any rate, is indicated in the tables by “phyto”. A blank cell in the following tables indicates no herbicidal or phytotoxic response at any rate tested.
The pre-emergence tests were conducted by the following procedure. Topsoil was sieved to pass through a 1.27 cm screen. Fertilizer was added to the topsoil and the mixture was then sterilized by heating. The topsoil mixture was placed in a pot and compacted to a depth of 1.0 to 1.25 cm from the top of the pot. Seeds of each of several monocotyledonous and dicotyledonous annual plant species were placed on top of the soil. Additional soil was subsequently placed over the seeds to level-fill the pot. A known amount of each test compound dissolved or suspended in an appropriate organic solvent was diluted with a 50:50 mix of acetone and water and applied to the surface of the soil. After treatment the plants were placed in a greenhouse with a 30/21° C. day/night temperature regime where they received 0.64 cm of overhead irrigation. All subsequent watering consisted of a light overhead mist and/or subirrigation as needed for germination and growth.
Pre-emergence herbicidal activity of the compound of Example 5, a racemic mixture of R- and S-enantiomers of N,N′-(1,2-propanediylbis)-3-(trifluoromethyl) benzamide, was compared with that of the individual R- and S-enantiomers, the compounds of Examples 5a and 5b respectively. The procedure was exactly as described above. Rates tested were 1000, 650, 300, 200, 100, 65, 30 and 10 g/ha.
In a greenhouse pre-emergence test conducted according to the procedure described hereinabove, R—N,N′-(1,2-propanediylbis)-3-(trifluoromethyl)benzamide (the compound of Example 5a) was applied at 200 g/ha and acetochlor was applied at 100 g/ha, both individually and in combination.
In the same greenhouse pre-emergence test, R-2-fluoro-3-trifluoromethyl-N-[1-methyl-2-(3-trifluoromethyl)phenylcarbonylamino]ethylbenzamide (the compound of Example 13) was applied at 100 g/ha and acetochlor was applied at 100 g/ha, both individually and in combination.

The next assay has as its system ABUTH. As to the kind of experiment: Pre-emergence herbicidal activity on ABUTH (velvetleaf). Type of assay: in vivo, Abutilon theophrasti. The procedure, abridged:
as §1

In another assay the test system is PANMI. As to the kind of experiment: Pre-emergence herbicidal activity on PANMI (wild proso millet). Type of assay: in vivo, Panicum miliaceum. In outline: as §1
The next assay concerns SORVU. Kind of assay: Pre-emergence herbicidal activity on SORVU (shattercane). The class given is in vivo, Sorghum vulgare. The following applies: racemic mixture vs enantiomers test; rates tested 1000, 650, 300, 200, 100, 65, 30 and 10 g/ha; lowest rate with 80% or greater inhibition. In outline:
as §1

The test system of the next assay is ECHCG. Kind of assay: Pre-emergence herbicidal activity on ECHCG (barnyardgrass). The following applies: racemic mixture vs enantiomers test; rates tested 1000, 650, 300, 200, 100, 65, 30 and 10 g/ha; lowest rate with 80% or greater inhibition. Type of assay: in vivo, Echinochloa crus-galli. The procedure, abridged: as §1
Where [2] appears, read: applied alone at 100 g/ha, greenhouse.
Where [3] appears, read: pre-emergence application, acetochlor 100 g/ha alone.
[4] abbreviates: racemic mixture vs enantiomers test, rates tested 1000, 650, 300, 200, 100, 65, 30 and 10 g/ha, lowest rate with 80% or greater inhibition.

In the case of `CCOCN(C(=O)CCl)c1c(C)cccc1CC` [Acetochlor, acetochlor, reference compound], the “Percent control by pre-emergence application, DATST” value in the assay on DATST (setting [2]) is recorded as 33%. Also, in the assay with DATST (setting [3]), the “Percent control DATST” value stood at 33%. For the same molecule, the “Percent control by pre-emergence application, CIRAR” value in the assay on CIRAR (setting [2]) came to 100%. Besides, the “Percent control CIRAR” value in the assay with CIRAR (setting [3]) is 100%. For the same molecule, in the assay on POROL (setting [2]), the “Percent control by pre-emergence application, POROL” value was 100%. Also, the “Percent control POROL” value in the assay on POROL (setting [3]) was 100%. Moreover, the “Percent control by pre-emergence application, PANDI” value in the assay on PANDI (setting [2]) stood at 100%. Moreover, in the assay with PANDI (setting [3]), the “Percent control PANDI” value stood at 100%. In addition, in the assay on SETFA (setting [2]), the “Percent control by pre-emergence application, SETFA” value turned out to be 100%. Besides, the “Percent control SETFA” value in the assay on SETFA (setting [3]) came out at 100%. In the assay on SORHA (setting [2]), the “Percent control by pre-emergence application, SORHA” value is given as 83%. In the assay with SORHA (setting [3]), the “Percent control SORHA” value was 83%. The “Percent control by pre-emergence application, BRAPP” value in the assay with BRAPP (setting [2]) came to 76%. For the same molecule, the “Percent control BRAPP” value in the assay on BRAPP (setting [3]) was 76%. Further, the “Percent control by pre-emergence application, CONAR” value with CONAR (setting [2]) stood at 23%. For the same molecule, the “Percent control CONAR” value with CONAR (setting [3]) worked out at 23%. Further, in the assay on CHEAL (setting [2]), the “Percent control by pre-emergence application, CHEAL” value worked out at 100%. Besides, in the assay with CHEAL (setting [3]), the “Percent control CHEAL” value is 100%. For the same molecule, the “Percent control by pre-emergence application, DIGSA” value in the assay on DIGSA (setting [2]) was determined as 100%. Moreover, the “Percent control DIGSA” value with DIGSA (setting [3]) was 100%. Moreover, the “Percent control by pre-emergence application, SOLNI” value in the assay with SOLNI (setting [2]) was 75%. Further, the “Percent control SOLNI” value in the assay with SOLNI (setting [3]) was 75%. In addition, in the assay with AMARE (setting [2]), the “Percent control by pre-emergence application, AMARE” value came to 100%. Moreover, the “Percent control AMARE” value with AMARE (setting [3]) was 100%. The “number of the 14 species showing >85% control” value in [1] (acetochlor alone at 100 g/ha) came out at 7. In addition, the “Percent control by pre-emergence application, ABUTH” value in the assay on ABUTH (setting [2]) was found to be 0%. The “Percent control ABUTH” value in the assay with ABUTH (setting [3]) is 0%. Besides, the “Percent control by pre-emergence application, PANMI” value in the assay on PANMI (setting [2]) came out at 83%. Also, the “Percent control PANMI” value in the assay on PANMI (setting [3]) stood at 83%.
For `CC(CNC(=O)c1cccc(C(F)(F)F)c1)NC(=O)c1cccc(C(F)(F)F)c1` (stereo not shown) [Example 5b], in the assay with DATST (setting [4]), the “Pre-emergence activity (GR80) DATST” value was “[empty]”. For the same molecule, the “Pre-emergence activity (GR80) CIRAR” value with CIRAR (setting [4]) was “[empty]”. In addition, the “Pre-emergence activity (GR80) PORAL” value in the assay with POROL (setting [4]) was “[empty]”. For the same molecule, the “Pre-emergence activity (GR80) PANDI” value with PANDI (setting [4]) was “[empty]”. Besides, in the assay with SETFA (setting [4]), the “Pre-emergence activity (GR80) SETFA” value was “[empty]”. Moreover, the “Pre-emergence activity (GR80) SORHA” value in the assay on SORHA (setting [4]) was “[empty]”. Moreover, in the assay with BRAPP (setting [4]), the “Pre-emergence activity (GR80) BRAPP” value is “[empty]”. The “Pre-emergence activity (GR80) CONAR” value in the assay on CONAR (setting [4]) was “[empty]”. Also, the “Pre-emergence activity (GR80) CHEAL” value in the assay on CHEAL (setting [4]) is “[empty]”. Moreover, in the assay with DIGSA (setting [4]), the “Pre-emergence activity (GR80) DIGSA” value was “[empty]”. Further, the “Pre-emergence activity (GR80) SOLNI” value in the assay on SOLNI (setting [4]) was “[empty]”. Besides, the “Pre-emergence activity (GR80) AMARE” value in the assay on AMARE (setting [4]) is “[empty]”. In addition, the “Pre-emergence activity (GR80) SORVU” value in the assay with SORVU is “[empty]”. Also, the “pre-emergence herbicidal activity (in words)” value in [1] (rates 1000 to 10 g/ha, all species of Tables 19 and 20) was “completely inactive”. Moreover, the “Pre-emergence activity (GR80) ECHCG” value in the assay on ECHCG was “[empty]”. Also, the “Pre-emergence activity (GR80) ABUTH” value in the assay with ABUTH (setting [4]) is “[empty]”. Also, the “Pre-emergence activity (GR80) PANMI” value with PANMI (setting [4]) was “[empty]”.
